Molecular target: T1, rat NaPi-2b (Rattus norvegicus, UniProt Q9JJ09)
T1 construct: expressed in transfected cells; host or cells: Xenopus oocytes injected with cRNA
T1 sequence (Q9JJ09 1-695): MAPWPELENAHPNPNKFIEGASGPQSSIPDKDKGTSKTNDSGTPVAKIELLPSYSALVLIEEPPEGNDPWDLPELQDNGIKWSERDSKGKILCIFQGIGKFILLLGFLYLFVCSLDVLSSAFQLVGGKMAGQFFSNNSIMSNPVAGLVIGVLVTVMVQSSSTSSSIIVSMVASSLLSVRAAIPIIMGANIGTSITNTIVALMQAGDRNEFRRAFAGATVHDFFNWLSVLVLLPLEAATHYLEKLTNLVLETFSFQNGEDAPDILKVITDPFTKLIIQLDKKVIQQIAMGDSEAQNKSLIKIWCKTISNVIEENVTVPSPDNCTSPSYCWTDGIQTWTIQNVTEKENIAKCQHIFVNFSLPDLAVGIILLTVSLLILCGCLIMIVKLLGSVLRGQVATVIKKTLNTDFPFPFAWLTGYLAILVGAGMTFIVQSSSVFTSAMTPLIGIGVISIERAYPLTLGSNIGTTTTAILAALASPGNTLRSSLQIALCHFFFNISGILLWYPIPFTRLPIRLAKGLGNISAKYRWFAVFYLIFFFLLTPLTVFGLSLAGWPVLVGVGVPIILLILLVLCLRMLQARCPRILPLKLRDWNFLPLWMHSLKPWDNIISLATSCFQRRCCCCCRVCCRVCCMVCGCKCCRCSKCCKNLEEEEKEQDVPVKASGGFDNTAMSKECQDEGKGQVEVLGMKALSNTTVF
Experiment: Sodium-dependent phosphate uptake of Xenopus oocytes which expressed NaPi-2b (32P)
Format: cell-based
Settings: for IC50: Xenopus oocytes expressing rat NaPi-2b, 32P radioactive phosphorus, read-out: IC50 (phosphate uptake inhibitory activity)
Procedure, shortened: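 Rat small-intestine NaPi-2b cRNA injected into Xenopus oocytes, expressed for 2 days. Sodium-dependent phosphate uptake measured with 32P; % inhibition at 300 and 100 μM taken from the same inhibition curve.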

[1] = phosphate uptake, oocytes expressing rat NaPi-2b, 300 μM, determined from inhibition curve

Row | SMILES | IC50 | other results
1 | CCN(CC)CCN(C)Cc1cccc(C(=O)Nc2c(C)csc2C(=O)N/N=C/c2ccc(OC)cc2)c1 [Compound 712, 3-{[(2-Diethylamino-ethyl)-methyl-amino]-methyl}-N-[2-(4-methoxy-benzylidene-hydrazinocarbonyl)-4-methyl-thiophen-3-yl]-benzamide] | – | Inhibition (%) (300 μM) [1]: 48.73%
2 | COc1ccc(C(=O)Nc2ccccc2C(=O)N/N=C/c2ccc(F)cc2)cc1 [Compound 48, N-[2-(4-Fluoro-benzylidene-hydrazinocarbonyl)-phenyl]-4-methoxy-benzamide] | 2.07 µM | –
3 | CC(O)CN(Cc1cccc(C(=O)Nc2sccc2C(=O)N/N=C/c2ccc(Cl)c(C(F)(F)F)c2)c1)CC(C)O (centres unmarked) [Compound 779, 3-{[Bis-(2-hydroxy-propyl)-amino]-methyl}-N-[3-(4-chloro-3-trifluoromethyl-benzylidene-hydrazinocarbonyl)-thiophen-2-yl]-benzamide] | – | inhibition at 300 µM [1]: 51.6%
4 | Cc1cc(/C=N/NC(=O)c2ccccc2NC(=O)c2cccnc2)oc1C [Compound 218, N-[2-(4,5-Dimethyl-furan-2-ylmethylene-hydrazinocarbonyl)-phenyl]-nicotinamide] | 4.05 µM | –
5 | Cc1csc(NC(=O)c2cccc(CSCCS(=O)(=O)O)c2)c1C(=O)N/N=C/c1ccc(F)cc1 [Compound 783, 2-{3-[3-(4-Fluoro-benzylidene-hydrazinocarbonyl)-4-methyl-thiophen-2-ylcarbamoyl]-benzylsulfanyl}-ethanesulfonic acid] | – | inhibition at 300 µM [1]: 88.8%
6 | COc1ccc(C(=O)Nc2ccc(Br)cc2C(=O)N/N=C/c2ccccc2Br)cc1OC [Compound 14, N-[4-Bromo-2-(2-bromo-benzylidene-hydrazinocarbonyl)-phenyl]-3,4-dimethoxy-benzamide] | 12.1 µM | –
7 | COc1ccc(C(=O)Nc2ccc(Br)cc2C(=O)N/N=C/c2ccccn2)cc1OC [Compound 243, N-[4-Bromo-2-(pyridin-2-ylmethylene-hydrazinocarbonyl)-phenyl]-3,4-dimethoxy-benzamide] | – | inhibition at 300 µM [1]: 50.2%
8 | Cc1ccc(/C=N/n2c(-c3cccc(CSCCO)c3)nc3ccc(Br)cc3c2=O)cc1 [Compound 696, 6-Bromo-2-[3-(2-hydroxy-ethylsulfanylmethyl)-phenyl]-3-[(4-methyl-benzylidene-)-amino]-3H-quinazolin-4-one] | 4.47 µM | –
9 | O=C(Nc1ccc(Br)cc1C(=O)N/N=C/c1ccc(Cl)c(C(F)(F)F)c1)c1ccccn1 [Compound 500, Pyridin-2-carboxylic acid [4-bromo-2-(4-chloro-3-trifluoromethyl-benzylidene-hydrazinocarbonyl)-phenyl]-amide] | 0.35 µM | –
10 | O=C(Nc1ccc(Br)cc1C(=O)N/N=C/c1ccc(F)cc1)c1ccc(CN2CCN(c3ccccn3)CC2)cc1 [Compound 774, N-[4-Bromo-2-(4-fluoro-benzylidene-hydrazinocarbonyl)-phenyl]-4-(4-pyridin-2-yl-piperazin-1-ylmethyl)-benzamide] | – | inhibition at 300 µM [1]: 58.9%
11 | CCN(CC)CCN(C)Cc1cccc(C(=O)Nc2sc3c(c2C(=O)N/N=C/c2ccc(C)c(C)c2)CCCC3)c1 [Compound 609, 3-{[(2-Diethylamino-ethyl)-methyl-amino]-methyl}-N-[3-(3,4-dimethyl-benzylidene-hydrazinocarbonyl)-4,5,6,7-tetrahydro-benzo[b]thiophen-2-yl]-benzamide] | < 0.3 µM | –
12 | CCN1CC(NCc2ccc(-c3nc4ccc(Br)cc4c(=O)n3/N=C/c3ccc(C)c(C)c3)cc2)CN1CC [Compound 749, 6-Bromo-2-{4-[(1,2-diethyl-pyrazolidin-4-ylamino)-methyl]-phenyl}-3-[(3,4-dimethyl-benzylidene)-amino]-3H-quinazolin-4-one] | 9.05 µM | –
13 | CCN(CC)CCN(C)Cc1cccc(C(=O)Nc2c(C)csc2C(=O)N/N=C/c2ccc(Cl)c(C(F)(F)F)c2)c1 [Compound 344, N-[2-(4-Chloro-3-trifluoromethyl-benzylidene-hydrazinocarbonyl)-4-methyl-thiophen-3-yl]-3-{[(2-diethylamino-ethyl)-methyl-amino]-methyl}-benzamide] | 31 µM | –
14 | COc1ccc(/C=N/NC(=O)c2c(C)csc2NC(=O)c2cccc(CSCCS(=O)(=O)O)c2)cc1 [Compound 785, 2-{3-[3-(4-Methoxy-benzylidene-hydrazinocarbonyl)-4-methyl-thiophen-2-ylcarbamoyl]-benzylsulfanyl}-ethanesulfonic acid] | – | inhibition at 300 µM [1]: 39.5%
15 | COc1ccc(C(=O)Nc2ccc(Br)cc2C(=O)N/N=C/c2cccc(O)c2)cc1OC [Compound 63, N-[4-Bromo-2-(3-hydroxy-benzylidene-hydrazinocarbonyl)-phenyl]-3,4-dimethoxy-benzamide] | 5.97 µM | –
16 | Cc1ccc(/C=N/NC(=O)c2ccccc2NC(=O)c2cccc(OC(F)(F)F)c2)cc1 [Compound 124] | 3.15 µM | –
17 | CCN(CC)CCN(C)Cc1cccc(C(=O)Nc2cc(OCCOC)c(OCCOC)cc2C(=O)N/N=C/c2ccc(Cl)c(C(F)(F)F)c2)c1 [Compound 1031, N-[2-(4-Chloro-3-trifluoromethyl-benzylidene-hydrazinocarbonyl)-4,5-bis-(2-methoxy-ethoxy)-phenyl]-3-{[(2-diethylamino-ethyl)-methyl-amino]-methyl}-benzamide] | – | inhibition at 300 µM [1]: 58.8%

Continued, in another order:

Row | IC50 | SMILES | other results
18 | 31.2 µM | CC(O)CN(Cc1cccc(C(=O)Nc2sccc2C(=O)N/N=C/c2ccc(F)cc2)c1)CC(C)O (centres unmarked) [Compound 672, 3-{[Bis-(2-hydroxy-propyl)-amino]-methyl}-N-[3-(4-fluoro-benzylidene-hydrazinocarbonyl)-thiophen-2-yl]-benzamide] | –
19 | 1.48 µM | O=C(Nc1ccc(Br)cc1C(=O)N/N=C/c1ccc(F)cc1)c1ccco1 [Compound 152, Furan-2-carboxylic acid [4-bromo-2-(4-fluoro-benzylidene-hydrazinocarbonyl)-phenyl]-amide] | –
20 | 3.59 µM | COc1ccc(C(=O)Nc2ccccc2C(=O)N/N=C/c2ccccc2)cc1OC [Compound 17, N-[2-(Benzylidene-hydrazinocarbonyl)-phenyl]-3,4-dimethoxy-benzamide] | –
21 | < 3 µM | COc1cccc(/C=N/NC(=O)c2cc(I)ccc2NC(=O)c2cccc(CN3CCC(N4CCCCC4)CC3)c2)c1 [Compound 488, 3-[1,4′]Bipiperidinyl-1′-ylmethyl-N-[4-iodo-2-(3-methoxy-benzylidene-hydrazinocarbonyl)-phenyl]-benzamide] | –
22 | 2.89 µM | CCN(CC)CCN(C)Cc1cccc(C(=O)Nc2ccc(N3CCCN(C)CC3)cc2C(=O)N/N=C/c2ccc(Cl)c(C(F)(F)F)c2)c1 [Compound 922, N-[2-(4-Chloro-3-trifluoromethyl-benzylidene-hydrazinocarbonyl)-4-(4-methyl-[1,4]diazepan-1-yl)-phenyl]-3-{[(2-diethylamino-ethyl)-methyl-amino]-methyl}-benzamide] | –
23 | 20.9 µM | COc1ccc(C(=O)Nc2ccccc2C(=O)N/N=C/c2ccsc2)cc1OC [Compound 24, 3,4-Dimethoxy-N-[2-(thiophen-3-ylmethylene-hydrazinocarbonyl)-phenyl]-benzamide] | –
24 | < 1 µM | COc1ccc(C(=O)Nc2ccc(I)cc2C(=O)N/N=C/c2ccc(C)cc2)cc1OC [Compound 207, N-[4-Iodo-2-(4-methyl-benzylidene-hydrazinocarbonyl)-phenyl]-3,4-dimethoxy-benzamide] | –
25 | 0.4 µM | O=C(Nc1ccc(Cl)cc1C(=O)N/N=C/c1cccc(F)c1)c1cccc(CSCC(O)CO)c1 (centres unmarked) [Compound 1007, N-[4-Chloro-2-(3-fluoro-benzylidene-hydrazinocarbonyl)-phenyl]-3-(2,3-dihydroxy-propylsulfanylmethyl)-benzamide] | –
26 | 5.02 µM | Cc1ccc(/C=N/NC(=O)c2cc(Br)ccc2NC(=O)c2ccc(CN3CCN(CCO)CC3)cc2)cc1 [Compound 317, N-[4-Bromo-2-(4-methyl-benzylidene-hydrazinocarbonyl)-phenyl]-4-[4-(2-hydroxy-ethyl)-piperazin-1-ylmethyl]-benzamide] | –
27 | 19.4 µM | Cc1ccc(/C=N/NC(=O)c2cc(Cl)ccc2NC(=O)c2cccnc2)cc1C [Compound 188, N-[4-Chloro-2-(3,4-dimethyl-benzylidene-hydrazinocarbonyl)-phenyl]-nicotinamide] | –
28 | 10.2 µM | Cc1ccc(/C=N/NC(=O)c2cc(OCCCN3CCCCC3)ccc2NC(=O)c2cccc(CSCCO)c2)cc1C [Compound 1041, N-[2-(3,4-Dimethyl-benzylidene-hydrazinocarbonyl)-4-(3-piperidin-1-yl-propoxy)-phenyl]-3-(2-hydroxy-ethylsulfanylmethyl)-benzamide] | –
29 | 1.09 µM | COc1ccc(C(=O)Nc2ccc(C)cc2C(=O)N/N=C/c2ccc(C)c(C)c2)cc1OC [Compound 150, N-[2-(3,4-Dimethyl-benzylidene-hydrazinocarbonyl)-4-methyl-phenyl]-3,4-dimethoxy-benzamide] | –

Reference: patent US8134015B2, “Compound inhibiting in vivo phosphorous transport and medicine containing the same” (Kyowa Hakko Kirin Co., Ltd., priority 2003, dated 2012)
